Reference: US5637697A, “1,5-benzodiazepine derivatives and their use in medicine” (Glaxo SpA, priority 1992, dated 1997)

Assays:
mice and rats [1] = test: oral tolerability / untoward effects in mice and rats; format: in vivo; conditions: given orally to mice and rats at doses at which the compound exhibits anxiolytic activity
Excerpt: (§1) The compounds of the invention are essentially non-toxic and therapeutically useful doses.

mice and rats [2] = test: anxiolytic activity, oral, mice and rats; format: in vivo; conditions: given orally to mice and rats
Excerpt: For example in mice in the black-white box test and in the rat social interaction model.
as §1

CCK-B receptor = target: T1, CCK-B receptor (Cavia porcellus, UniProt H0VZC5); test: CCK-B receptor binding (guinea pig cortex assay); conditions: read-out: pKi CCK-B (converted)
T1 construct: CCK-B receptor (guinea pig cortex assay); from tissue; host or cells: guinea pig cortex
Experimental: The greater affinity of the compounds of the invention for the CCK-B receptor over the CCK-A receptor has also been established using the CCK, receptor binding assays described by G Dal Fornos et al., J. Pharmcol. Exp & Ther. 261, 1056-1063, 1992.
The binding affinity of the compounds of the invention for the CCK-A receptor (Pancreas Assay) and CCK-B receptor (guinea pig cortex assay) was determined using the procedure of G Dal Forno et al J. Pharmacol. Exp & Ther. 261 - 1056-1063. The pKi values determined with respresentative compounds of invention were as follows: […]

T1 sequence (H0VZC5 entry or part of it): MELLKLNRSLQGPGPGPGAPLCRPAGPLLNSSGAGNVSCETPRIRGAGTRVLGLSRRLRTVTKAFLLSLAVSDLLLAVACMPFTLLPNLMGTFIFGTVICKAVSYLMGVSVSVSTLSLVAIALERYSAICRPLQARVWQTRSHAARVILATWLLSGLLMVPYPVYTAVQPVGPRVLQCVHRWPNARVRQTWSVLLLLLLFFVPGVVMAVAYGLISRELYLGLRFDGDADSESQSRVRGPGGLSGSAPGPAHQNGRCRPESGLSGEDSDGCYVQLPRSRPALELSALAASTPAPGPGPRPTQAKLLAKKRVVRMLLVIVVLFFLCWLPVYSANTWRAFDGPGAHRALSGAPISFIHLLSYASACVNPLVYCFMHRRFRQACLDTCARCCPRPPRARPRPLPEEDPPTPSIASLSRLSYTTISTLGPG

| SMILES | untoward effects (mice and rats [1]) | anxiolytic activity (mice and rats [2]) | Ki (CCK-B receptor) |
| --- | --- | --- | --- |
| O=C(Nc1ccccc1)NC1C(=O)N(CC23CC4CC(CC(C4)C2)C3)c2ccccc2N(c2ccccc2)C1=O (single isomer, unassigned; (+)) [Example 45, (+)-N-[1-(Adamantanmethyl)-2,4-dioxo-5-phenyl-2,3,4,5-tetrahydro-1H-1,5-benzodiazepin-3-yl]-N'-phenylurea] | no untoward effects were obserbved | exhibits anxiolytic activity |  |
| O=C(Nc1ccccc1)NC1C(=O)N(CC2CC3C=CC2C3)c2ccccc2N(c2ccccc2)C1=O (stereo not drawn) [Example 31, N-[1-(Bicyclo[2.2.1]-5-heptene-2-ylmethyl)-2,4-dioxo-5-phenyl-2,3,4,5-tetrahydro-1H-1,5-benzodiazepin-3-yl]-N'-phenylurea] |  |  | 1.2 nM |
